Results on 36 molecules are retold here after patent publication US7179941B2, “Carbonylamino-substituted acyl phenyl urea derivatives, process for their preparation and their use” (Sanofi-Aventis Deutschland GmbH, priority 2003, dated 2007).

The target of the first experiment is T1, human glycogen phosphorylase a (Homo sapiens, UniProt P06737).
T1 sequence (P06737 1-847): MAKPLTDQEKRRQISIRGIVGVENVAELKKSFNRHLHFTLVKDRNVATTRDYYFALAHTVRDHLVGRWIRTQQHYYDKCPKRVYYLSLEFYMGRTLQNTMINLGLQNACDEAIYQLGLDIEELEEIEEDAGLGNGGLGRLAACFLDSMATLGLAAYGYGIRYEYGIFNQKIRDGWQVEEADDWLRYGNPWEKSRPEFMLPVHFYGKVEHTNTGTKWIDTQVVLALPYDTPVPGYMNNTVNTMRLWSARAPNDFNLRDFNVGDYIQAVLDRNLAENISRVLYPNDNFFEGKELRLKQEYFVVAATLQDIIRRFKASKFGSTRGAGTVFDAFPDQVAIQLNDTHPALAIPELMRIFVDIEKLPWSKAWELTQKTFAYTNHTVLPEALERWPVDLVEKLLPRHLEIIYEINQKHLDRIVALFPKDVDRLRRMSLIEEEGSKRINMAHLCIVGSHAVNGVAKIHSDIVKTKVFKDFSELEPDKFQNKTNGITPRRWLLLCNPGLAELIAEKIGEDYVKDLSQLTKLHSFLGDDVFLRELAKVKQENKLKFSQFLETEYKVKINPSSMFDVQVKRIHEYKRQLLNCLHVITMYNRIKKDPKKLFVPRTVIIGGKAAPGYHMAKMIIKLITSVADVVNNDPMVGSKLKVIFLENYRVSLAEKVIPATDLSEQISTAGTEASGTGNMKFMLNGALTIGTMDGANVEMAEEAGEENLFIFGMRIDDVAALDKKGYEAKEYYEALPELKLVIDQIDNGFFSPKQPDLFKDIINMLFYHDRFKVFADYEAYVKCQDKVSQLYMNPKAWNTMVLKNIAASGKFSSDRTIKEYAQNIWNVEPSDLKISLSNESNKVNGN
In words: Glycogen phosphorylase a activity test. The experiment is classed as biochemical. The conditions noted are these: read-out: inhibition at a concentration of 100 μM.
For `O=C(O)C(=O)Nc1ccccc1C(=O)O` [Comparative Example A, reference compound], the inhibition at 100 µM came out at 11%.

A further experiment has as its target T1, human glycogen phosphorylase a. As to the kind of experiment: Glycogen phosphorylase a activity test. The experiment is classed as biochemical. The conditions noted are these: 10 μM test substance; GPa measured in reverse direction (glycogen synthesis from glucose 1-phosphate). On the procedure: Glycogen Phophorylase a Activity Test
The effect of compounds on the activity of the active form of glycogen phosphorylase (GPa) was measured in the reverse direction by monitoring the synthesis of glycogen from glucose 1-phosphate by determining the release of inorganic phosphate. All reactions were carried out as duplicate determinations in 96-well microtiter plates (half area plates, Costar No. 3696), and the change in absorption as a consequence of the formation of the reaction product was measured at the wavelength specified below in a Multiskan Ascent Elisa Reader (Lab Systems, Finland).
In order to measure the GPa enzyme activity in the reverse direction, the conversion of glucose 1-phosphate to glycogen and inorganic phosphate was measured by the general method of Engers et al. (Engers HD, Shechosky S, Madsen NB, Can J Biochem 1970 July;48(7):746–754) with the following modifications: human glycogen phosphorylase a (for example containing 0.76 mg of protein/ml (Aventis Pharma Deutschland GmbH), dissolved in buffer solution E (25 mM P-glycerophosphate, pH 7.0, 1 mM EDTA and 1 mM dithiotreitol) was diluted to a concentration of 10 μg of protein/ml with buffer T (50 mM Hepes, pH 7.0, 100 mM KCl, 2.5 mM EDTA, 2.5 mM MgCl2.6H2O) and addition of 5 mg/ml of glycogen. Test substances were prepared as a 10 mM solution in DMSO and diluted to 50 μM with buffer solution T. To 10 μl of this solution were added 10 μl of 37.5 mM glucose dissolved in buffer solution T and 5 mg/ml of glycogen, and also 10 μl of a solution of human glycogen phosphorylase a (10 μg of protein/ml) and 20 μl of 2.5 mM glucose 1-phosphate. The base value of the activity of glycogen phosphorylase a in the absence of test substance was determined by adding 10 μl of buffer solution T (0.1% DMSO). The mixture was incubated at room temperature for 40 minutes and the released inorganic phosphate was determined by means of the general method of Drueckes et al. (Drueckes P, Schinzel R, Palm D, Anal Biochem 1995 Sep. 1;230(1):173–177) with the following modifications: 50 μl of a stop solution of 7.3 mM of ammonium molybdate, 10.9 mM of zinc acetate, 3.6% of ascorbic acid, 0.9% of SDS are added to 50 μl of the enzyme mixture. After 60 minutes of incubation at 45° C., the absorption was measured at 820 nm. To determine the background absorption, the stop solution was added immediately after the addition of the glucose 1-phosphate solution in a separate reaction.
On to `O=C(O)C(=O)Nc1ccccc1C(=O)O` [Comparative Example A, reference compound], for which the % Inhibition (commonly the change of the read-out against control, counted positive when it falls) at 10 μM is given as “no inhibition”.

Take `COc1ccc(NC(=O)CN)cc1NC(=O)NC(=O)c1cc(F)c(F)cc1Cl` [Example 52]: the “% Inhibition at 10 μM” value came out at 101%.

`COc1ccc(NC(=O)CCCN)cc1NC(=O)NC(=O)c1cc(F)c(F)cc1Cl` [Example 53]: the “% Inhibition at 10 μM” value is recorded as 100%.

Turning to `CNCC(=O)Nc1ccc(OC)c(NC(=O)NC(=O)c2cc(F)c(F)cc2Cl)c1` [Example 54], the “% Inhibition at 10 μM” value turned out to be 100%.

As for `COc1ccc(NC(=O)CCN)cc1NC(=O)NC(=O)c1cc(F)c(F)cc1Cl` [Example 55], the “% Inhibition at 10 μM” value worked out at 100%.

Consider `C#CCCC(=O)Nc1ccc(OC)c(NC(=O)NC(=O)c2cc(F)c(F)cc2Cl)c1` [Example 57], for which the “% Inhibition at 10 μM” value is reported as 99%.

Take `COc1ccc(NC(=O)CN(C)C)cc1NC(=O)NC(=O)c1cc(F)c(F)cc1Cl` [Example 58]: the “% Inhibition at 10 μM” value was 99%.

With `CCOCC(=O)Nc1ccc(OC)c(NC(=O)NC(=O)c2cc(F)c(F)cc2Cl)c1` [Example 59], the “% Inhibition at 10 μM” value was determined as 103%.

For `C#CCC(=O)Nc1ccc(OC)c(NC(=O)NC(=O)c2cc(F)c(F)cc2Cl)c1` [Example 60], the “% Inhibition at 10 μM” value is reported as 103%.

On to `COc1ccc(NC(=O)C(F)F)cc1NC(=O)NC(=O)c1cc(F)c(F)cc1Cl` [Example 61], for which the “% Inhibition at 10 μM” value is on record as 100%.

For `COc1ccc(NC(=O)CO)cc1NC(=O)NC(=O)c1cc(F)c(F)cc1Cl` [Example 62], the “% Inhibition at 10 μM” value was found to be 101%.

As to `CC(=O)Nc1ccc(OC(F)(F)F)c(NC(=O)NC(=O)c2cc(F)c(F)cc2Cl)c1` [Example 64, N-{3-[3-(2-Chloro-4,5-difluorobenzoyl)ureido]-4-trifluoromethoxyphenyl}acetamide], the inhibition at 10 µM was found to be 101%.

`COC(=O)C(=O)Nc1ccc(OC(F)(F)F)c(NC(=O)NC(=O)c2cc(F)c(F)cc2Cl)c1` [Example 65]: the “% Inhibition at 10 μM” value was found to be 98%.

For the molecule `COC(=O)CC(=O)Nc1ccc(OC(F)(F)F)c(NC(=O)NC(=O)c2cc(F)c(F)cc2Cl)c1` [Example 66], the “% Inhibition at 10 μM” value amounted to 100%.

`COC(=O)CCC(=O)Nc1ccc(OC(F)(F)F)c(NC(=O)NC(=O)c2cc(F)c(F)cc2Cl)c1` [Example 67]: the “% Inhibition at 10 μM” value worked out at 101%.

Consider `O=C(NC(=O)c1cc(F)c(F)cc1Cl)Nc1cc(NC(=O)C(=O)O)ccc1OC(F)(F)F` [Example 68], for which the “% Inhibition at 10 μM” value amounted to 101%.

For `O=C(O)CC(=O)Nc1ccc(OC(F)(F)F)c(NC(=O)NC(=O)c2cc(F)c(F)cc2Cl)c1` [Example 69], the “% Inhibition at 10 μM” value stood at 100%.

Take `O=C(O)CCC(=O)Nc1ccc(OC(F)(F)F)c(NC(=O)NC(=O)c2cc(F)c(F)cc2Cl)c1` [Example 70]: the “% Inhibition at 10 μM” value was found to be 99%.

Take `CC(=O)Nc1ccc(N(C)C)c(NC(=O)NC(=O)c2cc(F)c(F)cc2Cl)c1` [Example 71]: the “% Inhibition at 10 μM” value turned out to be 97%.

Regarding `CCN(CC)c1ccc(NC(C)=O)cc1NC(=O)NC(=O)c1cc(F)c(F)cc1Cl` [Example 72], the “% Inhibition at 10 μM” value is on record as 96%.

In the case of `CC(=O)Nc1ccc(N2CCCC2)c(NC(=O)NC(=O)c2cc(F)c(F)cc2Cl)c1` [Example 73, N-{3-[3-(2-Chloro-4,5-difluorobenzoyl)ureido]-4-pyrrolidin-1-ylphenyl}acetamide], the inhibition at 10 µM came out at 97%.

As for `COC(=O)CC(=O)Nc1ccc(N(C)C)c(NC(=O)NC(=O)c2cc(F)c(F)cc2Cl)c1` [Example 74], the “% Inhibition at 10 μM” value came out at 98%.

For `COC(=O)CC(=O)Nc1ccc(N2CCCC2)c(NC(=O)NC(=O)c2cc(F)c(F)cc2Cl)c1` [Example 75], the “% Inhibition at 10 μM” value is 100%.

In the case of `CN(C)c1ccc(NC(=O)CC(=O)O)cc1NC(=O)NC(=O)c1cc(F)c(F)cc1Cl` [Example 76], the “% Inhibition at 10 μM” value worked out at 99%.

As for `O=C(O)CC(=O)Nc1ccc(N2CCCC2)c(NC(=O)NC(=O)c2cc(F)c(F)cc2Cl)c1` [Example 77], the “% Inhibition at 10 μM” value is recorded as 98%.

Regarding `O=C(O)CCC(=O)Nc1cccc(NC(=O)NC(=O)c2ccc(Cl)cc2Cl)c1` [Example 78], the “% Inhibition at 10 μM” value stood at 86%.

On to `NCCCC(=O)Nc1cccc(NC(=O)NC(=O)c2ccc(Cl)cc2Cl)c1` [Example 79], for which the “% Inhibition at 10 μM” value turned out to be 80%.

With `CC(=O)Nc1ccc(Cl)c(NC(=O)NC(=O)c2ccc(Cl)cc2Cl)c1.O=C(O)C(F)(F)F` [Example 80], the “% Inhibition at 10 μM” value is 98%.

On to `O=C(O)CCC(=O)Nc1ccc(Cl)c(NC(=O)NC(=O)c2ccc(Cl)cc2Cl)c1` [Example 81], for which the “% Inhibition at 10 μM” value is listed as 97%.

On to `COc1ccc(NC(C)=O)cc1NC(=O)NC(=O)c1ccc(Cl)cc1Cl` [Example 82], for which the “% Inhibition at 10 μM” value was found to be 102%.

Take `COc1ccc(NC(=O)CCC(=O)O)cc1NC(=O)NC(=O)c1ccc(Cl)cc1Cl` [Example 83]: the “% Inhibition at 10 μM” value is given as 103%.

As for `O=C(O)CCC(=O)Nc1ccc(Cl)c(NC(=O)NC(=O)c2cc(F)c(F)cc2Cl)c1` [Example 84], the “% Inhibition at 10 μM” value was 100%.

Take `CC(=O)Nc1ccc(Cl)c(NC(=O)NC(=O)c2cc(F)c(F)cc2Cl)c1` [Example 85]: the “% Inhibition at 10 μM” value is 98%.

Turning to `O=C(O)CC(=O)Nc1ccc(Cl)c(NC(=O)NC(=O)c2cc(F)c(F)cc2Cl)c1` [Example 86], the “% Inhibition at 10 μM” value was 95%.

Consider `COC(=O)C(=O)Nc1ccc(Cl)c(NC(=O)NC(=O)c2cc(F)c(F)cc2Cl)c1` [Example 87], for which the “% Inhibition at 10 μM” value is 96%.

Regarding `O=C(NC(=O)c1cc(F)c(F)cc1Cl)Nc1cc(NC(=O)C(=O)O)ccc1Cl` [Example 88], the “% Inhibition at 10 μM” value turned out to be 97%.
